These results are taken from ChEMBL document CHEMBL1138141, “Pyridazines part 41: synthesis, antiplatelet activity and SAR of 2,4,6-substituted 5-(3-oxo-3-phenylprop-1-en-1-yl)- or 5-(3-phenylprop-2-enoyl)pyridazin-3(2H)-ones” (Bioorg Med Chem Lett, 2006).

Calls of active or inactive are those of the source. The calls are words filed in the database; no cut-off is given here.

Assay [1] has as its target Prostaglandin G/H synthase 1 (Homo sapiens) (UniProt P23219). Description: Inhibition of thrombin-induced platelet aggregation below 100 uM. It counts as functional.
For assay [2] the target is unchanged. Description: Inhibition of thrombin-induced platelet aggregation above 100 uM. It counts as functional.

Sequence of Prostaglandin G/H synthase 1 (Homo sapiens) (P23219 whole entry): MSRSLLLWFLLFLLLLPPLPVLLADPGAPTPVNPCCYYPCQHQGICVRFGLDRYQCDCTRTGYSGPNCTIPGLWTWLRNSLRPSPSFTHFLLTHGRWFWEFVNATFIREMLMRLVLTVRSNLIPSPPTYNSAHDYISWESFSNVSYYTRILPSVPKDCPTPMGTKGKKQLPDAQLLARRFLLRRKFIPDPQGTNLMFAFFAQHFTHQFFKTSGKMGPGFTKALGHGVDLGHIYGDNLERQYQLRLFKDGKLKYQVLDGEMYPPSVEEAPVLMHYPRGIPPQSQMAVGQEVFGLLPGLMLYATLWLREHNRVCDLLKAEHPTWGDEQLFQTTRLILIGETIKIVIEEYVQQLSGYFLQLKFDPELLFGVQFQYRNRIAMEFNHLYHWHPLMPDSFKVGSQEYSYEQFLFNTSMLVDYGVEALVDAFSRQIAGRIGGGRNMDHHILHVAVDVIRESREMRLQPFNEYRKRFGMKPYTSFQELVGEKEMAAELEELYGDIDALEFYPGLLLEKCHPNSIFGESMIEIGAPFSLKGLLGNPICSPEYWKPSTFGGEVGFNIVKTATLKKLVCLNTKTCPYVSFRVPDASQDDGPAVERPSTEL

Turning to `O=C(/C=C/c1ccccc1)c1cnn(Cc2ccccc2)c(=O)c1`, in assay [1], the result was inactive. The result in assay [2] was Active.
